“Also recorded” adds a separate entry of the source.
Experiments:
Assay type in all cases: cell-based, human
[1] = tested on: lateral border recycling compartment (LBRC) in HUVEC; experiment: Targeted Recycling assay (LBRC recruitment to transmigrating leukocytes); conditions: transduced HUVEC, 8.5 minutes
Procedure: The Targeted Recycling assay determines whether the LBRC has been recruited to transmigrating leukocytes. Targeted recycling was performed as described previously (ref 5; herein incorporated by reference in its entirety). HUVEC monolayers are incubated with an Fab fragment of P1.1 mAb for 1 h at 37° C. in a CO2 incubator. […] HUVEC are then put on ice and washed with PBS to remove any free unbound Fab, followed by an incubation with an excess of F(ab′)2 fragment of unlabeled goat anti-mouse IgG on ice for 1 h. This saturably binds all of the Fab that is present on the surface of the endothelial junction, but will not enter the LBRC at this temperature. Free antibody is washed away and 2×10^6 PBMCs mixed with Alexa-568-conjugated F(ab′)2 fragment of the same goat […] transmigration to begin. Cells are then put on ice and washed with ice-cold PBS, followed by fixation in 2% paraformaldehyde for 10 min at room temperature.
In this procedure, only PECAM that was originally in the LBRC and recycled to the surface during the transmigration period will be labeled with the fluorescent secondary antibody, since it was protected from the unlabeled secondary antibody during the incubation on ice. The synchronized transmigration for a short time (8 minutes) catches leukocytes early in the act of transmigration before significant constitutive recycling and a corresponding increase in the staining of uninvolved junction occurs.
Confocal fluorescence microscopy is used to image the targeted recycling events. Leukocytes are identified with fluorescently conjugated mAb against CD18 (IB4). […] The number of monocytes in contact with the endothelial monolayer at cell junctions was assessed, and of those, it was determined how many are contacted by membrane from the LBRC. The intensity of fluorescent Goat-anti-mouse mAb was measured to quantify enrichment of recycling LBRC around transmigrating leukocytes. One-pixel-wide lines are drawn along the area surrounding the site of diapedesis. The mean fluorescence intensity in contact with the leukocyte is divided by the average intensity of constitutively recycled PECAM at the adjacent cell border to calculate LBRC enrichment around transmigrating leukocytes. Multiple monolayers were examined until at least one hundred transmigration events are observed for each variable tested. To avoid unintentional bias each leukocyte in contact with the endothelial border is scored, whether or not it has initiated TEM. […] Image processing and quantification of data are performed using Volocity and ImageJ (NIH) image processing software.

HUVEC = experiment: Standard one hour Transendothelial Migration (TEM) assay on transduced HUVEC
Procedure: (§1) 293A cells were grown on 100 mm dishes to 70-90% confluency and then transfected with adenoviral constructs using Lipofectamine 2000 for delivery. Amplified virus that expressed KHC and KLC knockdown and rescue constructs was purified and used to in transduction of HUVEC for knockdown and rescue experiments (VIRAPOWER Adenoviral Expression System).
The TEM assay is a quantitative assay designed to assess, using large numbers of transmigration events (more than 300 per variable tested), the effect of various treatments such as knocking down Kinesin-1, on the process of transmigration. As routinely performed in our lab (refs. 19,21; herein incorporated by reference in their entireties), peripheral blood mononuclear cells (PBMC, to assess monocyte transmigration) from healthy volunteers are purified on a Ficoll density gradient and then washed in Hanks' buffered saline solution (HBSS) plus 0.1% human serum albumin. Following this wash, they are resuspended in Medium 199 plus 0.1% human serum albumin. 2×10^6 cells are added to confluent TNF-α activated (10 ng/mL, >4 hrs) human umbilical vein endothelial cell (HUVEC) monolayers grown on hydrated collagen gels and incubated for 1 h at 37° C. in a CO2 incubator (ref. 22; herein incorporated by reference in its entirety). This is enough time to allow maximum TEM of control cells (˜90%).
To assess the role of microtubule motors in leukocyte TEM, control and experimentally treated HUVEC are compared side by side in this assay. The co-culture is washed with cold PBS and fixed overnight with 2.5% glutaraldehyde in 0.1 M sodium cacodylate buffer, pH 7.4. TEM is quantitated by Nomarski optics (ref. 21; herein incorporated by reference in its entirety). […] Monocytes are scored in each of several random fields for each monolayer until at least 100 are counted, with 3 replicate monolayers for each condition for a total of over 300 cells per variable tested. To avoid unintentional bias, all cells in the field are counted. Data are expressed as the percent of total leukocytes (attached plus transmigrated) that have transmigrated.

Kinesin-1 = experiment: Western Blot of Kinesin-1 in virally-transduced HUVEC; conditions: Kinesin-1 shRNA plus mCherry-tagged rescue construct
Procedure: as §1
HUVEC were harvested for SDS-PAGE by washing with PBS and adding sample buffer. DNA was sheared by passing through a 27 G needle 10 times and samples were heated to 100° C. for 5 minutes. Samples were separated on 8% polyacrylamide gels and transferred onto polyvinyldifluoride membranes before blocking with 5% milk in PBS with 0.05% Tween and probing with primary antibodies. Blots were incubated with horseradish peroxidase-conjugated secondary antibodies in 5% milk in PBS with 0.05% Tween, then washed, and detected using chemiluminescence and exposure to X-ray film.

Row | Substance | LBRC enrichment around monocytes at endothelial junctions [1] | targeted recycling of the LBRC [1] | targeted recycling of the LBRC ([1]; listed as KLC1 Variant 1 shRNA) | transmigration (TEM) of monocytes (HUVEC) | Kinesin-1 expression after rescue of knockdown (Kinesin-1)
1 | KLC1 variant 1 shRNA: shRNA targeting 3′ noncoding region of KLC1 isoform variant 1 (NM_005552.4); 5′-TGTATTTGTGTCTTTCTAA-3′ (SEQ ID NO: 11) (the letters are possibly those of the target site) | significantly diminished | significantly diminished | significantly decreased | reduced; also recorded: blocks | –
2 | KLC1 variants 2 & 3 shRNA: shRNA targeting KLC1 isoform variants 2 (NM_182923.3) and 3 (NM_001130107.1); 5′-GCATAGGACATGATACTAA-3′ (SEQ ID NO: 12) (the letters are possibly those of the target site) | – | – | – | not | –
3 | Kinesin-1 rescue construct: KHC rescue construct with silent point mutations in the targeted sequences and in-frame mCherry tag at the 3′ end | – | restored targeted recycling to control levels | – | rescued | rescued

From patent US12116574B2, “Anti-inflammatory treatment via inhibition of endothelial cell kinesin light chain 1, variant 1 (KLC1C)” (Northwestern University, priority 2016, dated 2024)
